Measured values reported in US20060069132A1, “Azolecarboxamide herbicides” (priority 2004, published 2006).

Tests used:
rice [1] = test: Test C flooded paddy test; type: in vivo, Oryza sativa
Protocol: (§1) At the same time, plants selected from these crop and weed species and also winter barley (Hordeum vulgare L.), blackgrass (Alopecurus myosuroides Huds.), canarygrass (Phalaris minor Retz.), chickweed (Stellaria media (L.) Vill.), downy bromegrass (Bromus tectorum L.), green foxtail (Setaria viridis (L.) Beauv.), Italian ryegrass (Lolium multiflorum Lam.), wheat (Triticum aestivum L.), wild oat (Avenafatua L.) and windgrass (Apera spica-venti (L.) Beauv.) were treated with postemergence applications of some of the test chemicals formulated in the same manner. Plants ranged in height from 2 to 18 cm (1- to 4-leaf stage) for postemergence treatments. Plant species in the flooded paddy test consisted of rice (Oryza sativa), smallflower umbrella sedge (Cyperus difformis L.), ducksalad (Heteranthera limosa (Sw.) Willd.) and barnyardgrass (Echinochloa crus-galli (L.) Beauv.) grown to the 2-leaf stage for testing. Treated plants and controls were maintained in a greenhouse for 12 to 14 days, after which time all species were compared to controls and visually evaluated. Plant response ratings, summarized in Table C, are based on a scale of 0 to 100 where 0 is no effect and 100 is complete control. A dash (-) response means no test result.

giant foxtail = test: Test B pre-/postemergence herbicide test; type: in vivo, Setaria faberi
Outline: (§2)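 Flooded paddy rice and barnyardgrass were treated at the 2-leaf stage; upland plantings received compound either on sown seed or on 1- to 4-leaf seedlings. All were kept 13–15 days in a greenhouse and scored visually, 0–100, relative to untreated plants.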

barnyardgrass [2] = test: Test C flooded paddy test; type: in vivo, Echinochloa crus-galli
Protocol: as §1

rice [3] = test: Test B flooded paddy test; type: in vivo, Oryza sativa; details: 1000 g ai/ha, visual rating, scale 0 to 100 (0 no effect, 100 complete control), 13 to 15 days
Outline: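 After treating 2-leaf paddy plants or 2–18 cm postemergence plants (1 to 4 leaves) with formulated chemical, researchers kept them in a greenhouse for 13–15 days. Effects were judged visually versus controls: 0 indicates none, 100 total control.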

blackgrass = test: Test B postemergence herbicide test; type: in vivo, Alopecurus myosuroides; details: scale 0 (no effect) to 100 (complete control)
Outline: (§3)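 Paddy species grown to the 2-leaf stage under flooding; blackgrass sprayed postemergence at 2–18 cm (1- to 4-leaf stage). Plants kept in a greenhouse for 13 to 15 days, then visually rated against controls on 0 (no effect) to 100 (complete control).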

lambsquarters = test: Test B pre-/postemergence herbicide test; type: in vivo, Chenopodium album
Outline: as §2

barnyardgrass [4] = test: Test B flooded paddy test; type: in vivo, Echinochloa crus-galli; details: 1000 g ai/ha, visual rating, scale 0 to 100 (0 no effect, 100 complete control), 13 to 15 days
Outline: as §3

[5] = test system: smallflower umbrella sedge; test: Test C flooded paddy test; type: in vivo, Cyperus difformis
Protocol: as §1

[6] = test system: small flower umbrella sedge; test: Test B flooded paddy test; type: in vivo, Cyperus difformis; details: 1000 g ai/ha, visual rating, scale 0 to 100 (0 no effect, 100 complete control), 13 to 15 days
Outline: as §3

large crabgrass = test: Test B pre-/postemergence herbicide test; type: in vivo, Digitaria sanguinalis
Outline: as §2

velvetleaf = test: Test B pre-/postemergence herbicide test; type: in vivo, Abutilon theophrasti
Outline: as §2

cocklebur = test: Test B pre-/postemergence herbicide test; type: in vivo, Xanthium strumarium
Outline: (§4)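 Test chemicals in a non-phytotoxic solvent mixture with surfactant were applied preemergence to seeded species and postemergence to plants 2-18 cm tall (1- to 4-leaf stage); rice and barnyardgrass were also tested in a flooded paddy at the 2-leaf stage. Visual rating versus controls after 13-15 days in greenhouse, scale 0 (no effect) to 100 (complete control).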

morningglory = test: Test B pre-/postemergence herbicide test; type: in vivo, Ipomoea coccinea; details: for Plant response rating, Morningglory: 500 g ai/ha
Outline: as §4

wild oat = test: Test B postemergence herbicide test; type: in vivo, Avena fatua; details: scale 0 (no effect) to 100 (complete control)
Outline: (§5)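 Read-out: visual comparison with controls, scored 0 to 100, where 100 means complete control and 0 no effect. Formulated chemicals were applied postemergence to plants 2–18 cm tall (1- to 4-leaf), or to flooded-paddy plants at the 2-leaf stage, then held 13 to 15 days under glass.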

barnyardgrass [7] = test: Test B pre-/postemergence herbicide test; type: in vivo, Echinochloa crus-galli; details: for Plant response rating, Barnyardgrass: 500 g ai/ha
Outline: as §4

ducksalad [8] = test: Test C flooded paddy test; type: in vivo, Heteranthera limosa
Protocol: as §1

pigweed = test: Test B pre-/postemergence herbicide test; type: in vivo, Amaranthus retroflexus
Outline: as §2

Surinam grass = test: Test B pre-/postemergence herbicide test; type: in vivo, Urochloa decumbens
Outline: as §2

ducksalad [9] = test: Test B flooded paddy test; type: in vivo, Heteranthera limosa; details: 1000 g ai/ha, visual rating, scale 0 to 100 (0 no effect, 100 complete control), 13 to 15 days
Outline: as §3

corn = test: Test B pre-/postemergence herbicide test; type: in vivo, Zea mays
Outline: as §2

wheat = test: Test B postemergence herbicide test; type: in vivo, Triticum aestivum; set-up: key to Wheat plant response rating: 0 = no effect, 100 = complete control; details: scale 0 (no effect) to 100 (complete control)
Outline: as §5

[10] = 62 g ai/ha, scale 0 to 100 (0 no effect, 100 complete control)
[11] = 125 g ai/ha, scale of 0 to 100, 0 is no effect, 100 is complete control
[12] = 250 g ai/ha, scale of 0 to 100, 0 is no effect, 100 is complete control
[13] = 500 g ai/ha, visual rating after 12 to 14 days, scale 0 to 100 (0 no effect, 100 complete control)
[14] = 500 g ai/ha, visual rating 0-100, 0 no effect, 100 complete control, preemergence
[15] = Postemergence, 500 g ai/ha, visual rating after 13 to 15 days, scale 0 (no effect) to 100 (complete control)
[16] = postemergence, 125 g ai/ha, visual rating, scale 0 (no effect) to 100 (complete control)
[17] = preemergence, 125 g ai/ha, 0 to 100 scale, 0 is no effect, 100 is complete control
[18] = Postemergence, 500 g ai/ha, visual rating after 13 to 15 days
[19] = postemergence, 125 g ai/ha, visual rating
[20] = visual rating 0-100, 0 no effect, 100 complete control, preemergence
[21] = Postemergence, visual rating after 13 to 15 days, scale 0 (no effect) to 100 (complete control)

CON=C(C)c1cccc(NC(=O)c2cc(C(C)(C)C)nn2C)c1 [Compound 106]
Rice plant response rating (rice [1]; [10]): 0 | Rice plant response rating (rice [1]; [11]): 0 | Rice plant response rating (rice [1]; [12]): 0 | Plant response rating, Rice (rice [1]; [13]): 20 | Plant response rating, Foxtail, Giant (giant foxtail; [14]): 40 | Plant response rating, Foxtail, Giant (giant foxtail; [15]): 0 | Foxtail, Giant plant response rating (giant foxtail; [16]): 0 | Plant response rating, Foxtail, Giant (giant foxtail; [17]): 10 | Barnyardgrass plant response rating (barnyardgrass [2]; [10]): 0 | Barnyardgrass plant response rating (barnyardgrass [2]; [11]): 0 | Barnyardgrass plant response rating (barnyardgrass [2]; [12]): 0 | Plant response rating, Barnyardgrass (barnyardgrass [2]; [13]): 0 | Rice plant response rating (rice [3]): 0 | Plant response rating, Blackgrass (blackgrass; [18]): 0 | Blackgrass plant response rating (blackgrass; [19]): 0 | Plant response rating, Lambsquarters (lambsquarters; [14]): 100 | Plant response rating, Lambsquarters (lambsquarters; [15]): 90 | Lambsquarters plant response rating (lambsquarters; [16]): 50 | Plant response rating, Lambsquarters (lambsquarters; [17]): 0 | Barnyardgrass plant response rating (barnyardgrass [4]): 0 | Sedge, Umbrella plant response rating [5, 10]: 0 | Sedge, Umbrella plant response rating [5, 11]: 0 | Sedge, Umbrella plant response rating [5, 12]: 30 | Plant response rating, Sedge, Umbrella [5, 13]: 80 | Sedge, Umbrella plant response rating [6]: 90 | Plant response rating, Crabgrass, Large (large crabgrass; [14]): 100 | Plant response rating, Crabgrass, Large (large crabgrass; [15]): 10 | Crabgrass, Large plant response rating (large crabgrass; [16]): 0 | Plant response rating, Crabgrass, Large (large crabgrass; [17]): 90 | Plant response rating, Velvetleaf (velvetleaf; [14]): 0 | Plant response rating, Velvetleaf (velvetleaf; [15]): 20 | Velvetleaf plant response rating (velvetleaf; [16]): 0 | Plant response rating, Velvetleaf (velvetleaf; [17]): 0 | Plant response rating, Cocklebur (cocklebur; [14]): 0 | Plant response rating, Cocklebur (cocklebur; [15]): 50 | Cocklebur plant response rating (cocklebur; [16]): 20 | Plant response rating, Cocklebur (cocklebur; [17]): 0 | Plant response rating, Morningglory (morningglory; [20]): 10 | Plant response rating, Morningglory (morningglory; [21]): 10 | Morningglory plant response rating (morningglory; [16]): 10 | Plant response rating, Oat, Wild (wild oat; [18]): 20 | Oat, Wild plant response rating (wild oat; [19]): 10 | Plant response rating, Barnyardgrass (barnyardgrass [7]; [20]): 70 | Plant response rating, Barnyardgrass (barnyardgrass [7]; [21]): 0 | Barnyardgrass plant response rating (barnyardgrass [7]; [16]): 0 | Ducksalad plant response rating (ducksalad [8]; [10]): 0 | Ducksalad plant response rating (ducksalad [8]; [11]): 0 | Ducksalad plant response rating (ducksalad [8]; [12]): 0 | Plant response rating, Ducksalad (ducksalad [8]; [13]): 0 | Plant response rating, Pigweed (pigweed; [14]): 70 | Plant response rating, Pigweed (pigweed; [15]): 20 | Pigweed plant response rating (pigweed; [16]): 10 | Plant response rating, Pigweed (pigweed; [17]): 0 | Plant response rating, Surinam Grass (Surinam grass; [14]): 20 | Plant response rating, Surinam Grass (Surinam grass; [15]): 10 | Surinam Grass plant response rating (Surinam grass; [16]): 10 | Plant response rating, Surinam Grass (Surinam grass; [17]): 0 | Ducksalad plant response rating (ducksalad [9]): 80 | Plant response rating, Corn (corn; [14]): 0 | Plant response rating, Corn (corn; [15]): 10 | Corn plant response rating (corn; [16]): 10 | Plant response rating, Corn (corn; [17]): 0 | Plant response rating, Wheat (wheat; [18]): 0 | Wheat plant response rating (wheat; [19]): 0
